Legend:
[1] = target: T1, EGF receptor tyrosine kinase (Homo sapiens, UniProt P00533); experiment: Test (a): in vitro inhibition of the enzyme EGF receptor tyrosine kinase; assay type: biochemical; settings: enzyme partially purified from A-431 cells
T1 construct: Receptor tyrosine kinase was obtained in partially purified form from A-431 cells; endogenous in cells; host or cells: A-431 cells (human vulval carcinoma), solubilised membrane preparation
Procedure: (a) An in vitro assay which determines the ability of a test compound to inhibit the enzyme EGF receptor tyrosine kinase. Receptor tyrosine kinase was obtained in partially purified form from A-431 cells (derived from human vulval carcinoma) by the procedures described below which are related to those described by Carpenter et al, J. Biol. Chem., 1979, 254, 4884, Cohen et al., J. Biol. Chem., 1982, 257, 1523 and by Braun et al., J. Biol Chem., 1984, 259, 2051.
A-431 cells were grown to confluence using Dulbecco's modified Eagle's medium DMEM) containing 5% fetal calf serum (FCS). The obtained cells were homogenised in a hypotonic borate/EDTA buffer at pH 10.1. The homogenate was centrifuged at 400 g for 10 minutes at 0-4° C. The supernatant was centrifuged at 25,000 g for 30 minutes at 0-4° C. […]
The test compound/EGF mixture solution (5 μl) was added to the test enzyme solution (10 μl) and the mixture was incubated at 0-4° C. for 30 minutes. […] Radioactivity present in the filter paper was measured using a liquid scintillation counter (Sequence A). […]
Receptor tyrosine kinase inhibition was calculated as follows: [formula]
The extent of inhibition was then determined at a range of concentrations of test compound to give an IC50 value.

[2] = tested on: human naso-pharyngeal cancer cell line KB; experiment: Test (b): in vitro inhibition of EGF-stimulated growth of KB cells; assay type: cell-based; settings: EGF (10 ng/ml) stimulated growth, MTT
Procedure: (b) An in vitro assay which determines the ability of a test compound to inhibit the EGF-stimulated growth of the human naso-pharyngeal cancer cell line KB.
KB cells were seeded into wells at a density of 1×10^4-1.5×10^4 cells per well and grown for 24 hours in DMEM supplemented with 5% FCS (charcoal-stripped). Cell growth was determined after. incubation for 3 days by the extent of metabolism of MTT tetrazolium dye to furnish a bluish colour. Cell growth was then determined in the presence of EGF (10 ng/ml) or in the presence of EGF (10 ng/ml) and a test compound at a range of concentrations. An IC50 value could then be calculated.

[3] = tested on: xenografts of the human vulval epidermoid carcinoma cell line A-431; experiment: Test (d): in vivo inhibition of growth of A-431 xenografts in athymic nude mice; settings: dosage of 50 mg/kg/day
Procedure: (d) An in-vivo assay in a group of athymic nude mice (strain ONU:Alpk) which determines the ability of a test compound (usually administered orally as a ball-milled suspension in 0.5% polysorbate) to inhibit the growth of xenografts of the human vulval epidermoid carcinoma cell line A-431.
A-431 cells were maintained in culture in DMEM supplemented with 5% FCS and 2 mM glutamine. Freshly cultured cells were harvested by trypsinization and injected subcutaneously (10 million cells/0.1 ml/mouse) into both flanks of a number of donor nude mice. When sufficient tumour material was available (after approximately 9 to 14 days), fragments of tumour tissue were transplanted into the flanks of recipient nude mice (test day 0). Generally, on the seventh day after transplantation (test day 7) groups of 7 to 10 mice with similar-sized tumours were selected and dosing of the test compound was commenced. Once-daily dosing of test compound was continued for a total of 13 days (test days 7 to 19 inclusive). In some studies the dosing of the test compound was continued beyond test day 19, for example to test day 26. In each case, on the following day the animals were killed and final tumour volume was calculated from measurements of the length and width of the tumours. Results were calculated as a percentage inhibition of tumour volume relative to untreated controls.

[4] = tested on: transplanted human mammary carcinoma; settings: cited from earlier work

T1 sequence (P00533 25-1210): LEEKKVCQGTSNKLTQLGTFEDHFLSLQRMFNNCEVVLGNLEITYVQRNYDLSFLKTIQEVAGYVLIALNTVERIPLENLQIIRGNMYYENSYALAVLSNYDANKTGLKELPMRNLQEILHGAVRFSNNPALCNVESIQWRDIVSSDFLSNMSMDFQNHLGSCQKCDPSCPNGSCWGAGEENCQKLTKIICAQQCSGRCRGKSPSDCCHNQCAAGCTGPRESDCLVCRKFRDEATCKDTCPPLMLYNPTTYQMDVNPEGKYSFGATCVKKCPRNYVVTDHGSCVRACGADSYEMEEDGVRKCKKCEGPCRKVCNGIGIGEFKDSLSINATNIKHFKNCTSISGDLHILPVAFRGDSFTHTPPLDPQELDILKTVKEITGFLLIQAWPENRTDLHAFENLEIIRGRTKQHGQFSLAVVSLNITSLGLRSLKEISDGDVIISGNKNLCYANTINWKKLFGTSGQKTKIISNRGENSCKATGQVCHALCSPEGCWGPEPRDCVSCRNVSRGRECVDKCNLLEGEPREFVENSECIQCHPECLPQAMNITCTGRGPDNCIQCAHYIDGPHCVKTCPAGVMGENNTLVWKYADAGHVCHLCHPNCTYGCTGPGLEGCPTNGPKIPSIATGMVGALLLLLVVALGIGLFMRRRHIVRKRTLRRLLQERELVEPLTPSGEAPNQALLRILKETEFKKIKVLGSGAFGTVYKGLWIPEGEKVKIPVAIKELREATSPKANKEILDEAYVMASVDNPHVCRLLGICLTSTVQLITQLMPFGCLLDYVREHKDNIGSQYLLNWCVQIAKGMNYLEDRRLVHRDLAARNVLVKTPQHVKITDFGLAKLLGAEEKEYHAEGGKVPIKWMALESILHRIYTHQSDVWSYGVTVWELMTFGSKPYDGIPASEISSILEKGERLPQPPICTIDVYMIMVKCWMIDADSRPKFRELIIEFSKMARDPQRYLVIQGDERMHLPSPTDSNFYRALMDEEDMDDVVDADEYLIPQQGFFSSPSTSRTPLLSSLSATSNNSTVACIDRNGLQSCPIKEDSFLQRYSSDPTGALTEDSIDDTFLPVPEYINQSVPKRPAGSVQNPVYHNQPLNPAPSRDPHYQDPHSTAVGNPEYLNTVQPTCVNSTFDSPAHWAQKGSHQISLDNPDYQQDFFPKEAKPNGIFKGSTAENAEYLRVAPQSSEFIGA

melting point [°C]	SMILES	other results
> 250	N#Cc1ccc(-c2ccc3ncnc(Nc4ccc(F)c(Cl)c4)c3c2)cc1 [Example 1, 4-(3-chloro-4-fluoroanilino)-6-(4-cyanophenyl)quinazoline]	
137 to 139	Cc1cccc(Nc2ncnc3ccc(CSc4nccn4C)cc23)c1 [Example 35, 4-(3-methylanilino)-6-(N-methylimidazol-2-ylthiomethyl)quinazoline]	
> 250	Cl.O=C(Nc1ccc2ncnc(Nc3ccc(F)c(Cl)c3)c2c1)c1cccs1	
> 260	CNc1cc2ncnc(Nc3ccc(F)c(Cl)c3)c2cc1NC(=O)c1cccnc1 [Example 24, 4-(3-chloro-4-fluoroanilino)-7-methylamino-6-(pyridine-3-carboxamido)quinazoline]	
> 250	Cl.O=C(Nc1ccc2ncnc(Nc3ccc(F)c(Cl)c3)c2c1)c1ccno1	
207 to 208	Cc1cccc(Nc2ncnc3ccc(NCc4ccsc4)cc23)c1 [Example 16, 4-(3-methylanilino)-6-(3-thienylmethylamino)quinazoline]	
193 to 195	Fc1ccc(Nc2ncnc3ccc(NCc4cccs4)cc23)cc1Cl [Example 19, 4-(3-chloro-4-fluoroanilino)-6-(2-thienylmethylamino)quinazoline]	
207 to 209	Cc1cccc(Nc2ncnc3ccc(-c4ccccc4)cc23)c1 [Example 2, 4-(3-methylanilino)-6-phenylquinazoline]	

Continued, molecule first:

SMILES	melting point [°C]	other results
Fc1ccc(Nc2ncnc3ccc(-c4ccc(CCN5CCOCC5)s4)cc23)cc1Cl [Example 8, 4-(3-chloro-4-fluoroanilino)-6-[5-(2-morpholinoethyl)thien-2-yl]quinazoline]		IC50 [1]: 40 nM; IC50 [2]: 190 nM; inhibition in Test (d) (tumour volume relative to untreated controls) [3]: 64%
Cc1cc(Nc2ncnc3ccc(-c4cccs4)cc23)ccc1OCc1ccccn1 [Example 38, 4-[3-methyl-4-(2-pyridylmethoxy)anilino]-6-(2-thienyl)-quinazoline]	205 to 206	
Cc1cccc(Nc2ncnc3ccc(Nc4ncc[nH]4)cc23)c1 [Example 14, 6-(2-imidazolylamino)-4-(3-methylanilino)quinazoline]	256 to 258	
O=CN/C=C/c1cc(O)ccc1O [erbstatin]		growth of another carcinoma ([4]; carcinoma which does not express EGF receptor tyrosine kinase): without effect on the growth; growth of transplanted human mammary carcinoma ([4]; carcinoma which expresses EGF receptor tyrosine kinase, athymic nude mice): specifically attenuates the growth
Fc1ccc(Nc2ncnc3ccc(-c4cccs4)cc23)cc1Cl [Example 6, 4-(3-chloro-4-fluoroanilino)-6-(2-thienyl)quinazoline]	205 to 208	
Fc1ccc(Nc2ncnc3ccc(-c4ccco4)cc23)cc1Cl [Example 5, 4(3-chloro-4-fluoroanilino)-6-(2-furyl)quinazoline]	232 to 234	
Cc1cc(Nc2ncnc3ccc(-c4ccoc4)cc23)ccc1OCc1ccccn1 [Example 39, 6-(3-furyl)-4-[3-methyl-4-(2-pyridylmethoxy)anilino]-quinazoline]	206 to 208	
Cc1cccc(Nc2ncnc3ccc(CSc4ncc[nH]4)cc23)c1 [Example 36, 6-(2-imidazolylthiomethyl)-4-(3-methylanilino)-quinazoline]	217 to 219	
Fc1ccc(Nc2ncnc3ccc(-c4ccsc4)cc23)cc1Cl [Example 7, 4-(3-chloro-4-fluoroanilino)-6-(3-thienyl)quinazoline]	195 to 197	
Cc1cccc(Nc2ncnc3ccc(CSc4c[nH]nn4)cc23)c1 [Example 34, 4-(3-methylanilino)-6-(1,2,3-triazol-4-ylthiomethyl)quinazoline]	64 to 68	
Cc1cccc(Nc2ncnc3ccc(NS(=O)(=O)c4cn(C)cn4)cc23)c1 [Example 15, 4-(3-methylanilino)-6-(1-methylimidazole-4-sulphonamido)quinazoline]	> 250	
Cc1cccc(Nc2ncnc3ccc(CSc4nc5ccccc5[nH]4)cc23)c1 [Example 37, 6-(2-benzimidazolylthiomethyl)-4-(3-methylanilino)quinazoline]	123 to 129	

— patent publication US6897214B2, “Quinazoline derivatives” (Zeneca Limited, priority 1996, dated 2005)
